Results published in ChEMBL document CHEMBL5465560, “Selectivity Literature for EUbOPEN Chemogenomic Library” (2024).

Key:
[1] = target: T1, Serine/threonine-protein kinase RIO1 (Homo sapiens) (UniProt Q9BRS2); conditions: at 10 µM
T1 sequence (whole entry): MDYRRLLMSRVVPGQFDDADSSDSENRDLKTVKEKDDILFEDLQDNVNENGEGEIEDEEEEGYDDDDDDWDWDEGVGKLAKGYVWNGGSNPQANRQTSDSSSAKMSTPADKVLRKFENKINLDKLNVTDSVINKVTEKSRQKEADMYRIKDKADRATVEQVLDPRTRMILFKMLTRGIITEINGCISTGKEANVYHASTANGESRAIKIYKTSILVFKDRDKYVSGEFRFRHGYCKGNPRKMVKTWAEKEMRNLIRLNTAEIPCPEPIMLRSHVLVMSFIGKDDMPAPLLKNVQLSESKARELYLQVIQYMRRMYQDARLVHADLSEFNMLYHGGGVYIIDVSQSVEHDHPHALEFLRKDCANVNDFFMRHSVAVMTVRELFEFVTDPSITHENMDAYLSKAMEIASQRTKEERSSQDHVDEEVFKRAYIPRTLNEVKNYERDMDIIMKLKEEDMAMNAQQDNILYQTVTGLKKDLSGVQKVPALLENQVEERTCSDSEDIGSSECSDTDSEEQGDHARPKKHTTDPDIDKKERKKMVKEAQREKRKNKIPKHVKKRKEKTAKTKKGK

Histamine H3 receptor = Histamine H3 receptor (Homo sapiens, UniProt Q9Y5N1); assay: Selectivity interaction (GPCR panel (PDSP screen)) EUB0001079a HRH3; conditions: at 10 µM
Histamine H3 receptor, sequence (Q9Y5N1 whole entry): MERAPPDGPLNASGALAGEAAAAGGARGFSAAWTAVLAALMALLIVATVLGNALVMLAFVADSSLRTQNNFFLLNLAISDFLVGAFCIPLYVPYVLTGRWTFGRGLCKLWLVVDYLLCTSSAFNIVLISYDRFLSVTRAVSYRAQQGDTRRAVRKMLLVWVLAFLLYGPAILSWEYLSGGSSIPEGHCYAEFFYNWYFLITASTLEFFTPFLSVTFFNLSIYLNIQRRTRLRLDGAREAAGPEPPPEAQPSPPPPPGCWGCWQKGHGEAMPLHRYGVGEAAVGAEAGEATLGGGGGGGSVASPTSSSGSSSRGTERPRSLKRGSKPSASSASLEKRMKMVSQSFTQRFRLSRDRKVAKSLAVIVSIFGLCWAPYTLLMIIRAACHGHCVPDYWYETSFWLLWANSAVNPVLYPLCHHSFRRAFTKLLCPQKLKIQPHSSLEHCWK

[2] = target: Protein polybromo-1 (Homo sapiens) (UniProt Q86U86); assay: Selectivity interaction (Human bromodomain panel (DSF assay)) EUB0000233b PBRM1
Protein polybromo-1 (Homo sapiens), sequence (Q86U86 whole entry): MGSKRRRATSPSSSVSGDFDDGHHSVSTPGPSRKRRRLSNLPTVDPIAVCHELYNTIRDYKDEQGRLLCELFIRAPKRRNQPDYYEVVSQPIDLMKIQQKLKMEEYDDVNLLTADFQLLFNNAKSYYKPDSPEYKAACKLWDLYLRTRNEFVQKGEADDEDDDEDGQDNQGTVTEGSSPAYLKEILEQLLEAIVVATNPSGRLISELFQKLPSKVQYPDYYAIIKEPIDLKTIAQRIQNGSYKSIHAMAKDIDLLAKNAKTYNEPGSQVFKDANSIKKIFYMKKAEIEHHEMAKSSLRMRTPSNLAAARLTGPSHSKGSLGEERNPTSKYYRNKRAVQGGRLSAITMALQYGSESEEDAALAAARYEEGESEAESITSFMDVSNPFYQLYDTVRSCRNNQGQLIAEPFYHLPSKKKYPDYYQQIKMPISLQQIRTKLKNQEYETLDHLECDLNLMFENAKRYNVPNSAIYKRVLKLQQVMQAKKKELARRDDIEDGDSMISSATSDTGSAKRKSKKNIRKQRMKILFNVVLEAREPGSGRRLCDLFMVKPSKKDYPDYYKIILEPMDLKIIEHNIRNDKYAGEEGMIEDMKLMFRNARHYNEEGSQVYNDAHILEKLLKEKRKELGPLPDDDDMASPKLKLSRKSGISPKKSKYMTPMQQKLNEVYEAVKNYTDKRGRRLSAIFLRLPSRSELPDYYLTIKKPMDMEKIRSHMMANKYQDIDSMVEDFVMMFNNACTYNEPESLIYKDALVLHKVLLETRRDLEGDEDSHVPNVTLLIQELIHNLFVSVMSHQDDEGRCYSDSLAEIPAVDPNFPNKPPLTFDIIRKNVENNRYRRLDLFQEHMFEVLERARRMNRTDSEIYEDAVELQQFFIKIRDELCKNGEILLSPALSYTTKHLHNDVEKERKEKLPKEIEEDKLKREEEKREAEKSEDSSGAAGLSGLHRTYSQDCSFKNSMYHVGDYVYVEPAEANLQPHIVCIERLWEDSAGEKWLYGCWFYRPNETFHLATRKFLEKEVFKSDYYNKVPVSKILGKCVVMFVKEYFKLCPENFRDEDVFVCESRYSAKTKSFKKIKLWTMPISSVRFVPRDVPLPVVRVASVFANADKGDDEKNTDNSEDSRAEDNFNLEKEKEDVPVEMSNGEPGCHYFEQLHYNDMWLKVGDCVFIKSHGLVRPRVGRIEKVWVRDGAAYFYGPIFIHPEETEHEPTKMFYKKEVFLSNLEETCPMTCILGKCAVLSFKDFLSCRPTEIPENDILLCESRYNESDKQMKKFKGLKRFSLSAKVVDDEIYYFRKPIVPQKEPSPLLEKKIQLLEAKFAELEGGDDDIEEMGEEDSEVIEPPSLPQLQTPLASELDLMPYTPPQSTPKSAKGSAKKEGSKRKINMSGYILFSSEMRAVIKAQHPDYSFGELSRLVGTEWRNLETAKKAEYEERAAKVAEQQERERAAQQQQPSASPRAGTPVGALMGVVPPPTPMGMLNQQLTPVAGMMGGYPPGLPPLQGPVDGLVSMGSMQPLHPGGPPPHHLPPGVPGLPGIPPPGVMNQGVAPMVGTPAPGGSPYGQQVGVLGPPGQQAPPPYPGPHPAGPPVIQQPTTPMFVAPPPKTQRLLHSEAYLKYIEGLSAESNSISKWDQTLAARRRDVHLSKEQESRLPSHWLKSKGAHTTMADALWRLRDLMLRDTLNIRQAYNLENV

[3] = target: T2, Tyrosine-protein kinase Tec (Homo sapiens) (UniProt P42680); assay: Selectivity interaction (ActivX KiNativ screen (kinase selectivity in THP-1 cell lysates)) EUB0000639a TEC; type: subcellular; conditions: lysate
T2 sequence (whole entry): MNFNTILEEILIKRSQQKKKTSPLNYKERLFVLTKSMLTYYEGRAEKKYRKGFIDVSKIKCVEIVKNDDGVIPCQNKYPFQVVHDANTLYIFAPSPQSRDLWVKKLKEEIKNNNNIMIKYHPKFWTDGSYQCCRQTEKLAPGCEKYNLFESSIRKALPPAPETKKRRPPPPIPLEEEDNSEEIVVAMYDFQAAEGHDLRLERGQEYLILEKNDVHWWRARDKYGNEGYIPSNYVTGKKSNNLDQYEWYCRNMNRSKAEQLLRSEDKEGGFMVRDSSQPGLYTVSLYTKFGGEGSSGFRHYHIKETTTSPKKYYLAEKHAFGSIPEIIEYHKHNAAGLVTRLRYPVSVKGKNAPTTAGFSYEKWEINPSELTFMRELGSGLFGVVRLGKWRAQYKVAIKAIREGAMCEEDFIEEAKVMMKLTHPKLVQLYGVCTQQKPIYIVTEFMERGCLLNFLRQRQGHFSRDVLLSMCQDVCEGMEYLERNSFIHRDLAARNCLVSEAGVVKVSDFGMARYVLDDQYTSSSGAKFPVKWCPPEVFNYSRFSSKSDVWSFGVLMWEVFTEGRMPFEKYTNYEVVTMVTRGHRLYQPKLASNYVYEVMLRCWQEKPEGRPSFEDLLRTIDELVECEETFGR

[4] = target: T3, MAP kinase-activated protein kinase 5 (Homo sapiens) (UniProt Q8IW41); assay: Selectivity interaction (KinomeScan (DiscoverX)) EUB0000607a MAPKAPK5; conditions: at 10 µM
T3 sequence (whole entry): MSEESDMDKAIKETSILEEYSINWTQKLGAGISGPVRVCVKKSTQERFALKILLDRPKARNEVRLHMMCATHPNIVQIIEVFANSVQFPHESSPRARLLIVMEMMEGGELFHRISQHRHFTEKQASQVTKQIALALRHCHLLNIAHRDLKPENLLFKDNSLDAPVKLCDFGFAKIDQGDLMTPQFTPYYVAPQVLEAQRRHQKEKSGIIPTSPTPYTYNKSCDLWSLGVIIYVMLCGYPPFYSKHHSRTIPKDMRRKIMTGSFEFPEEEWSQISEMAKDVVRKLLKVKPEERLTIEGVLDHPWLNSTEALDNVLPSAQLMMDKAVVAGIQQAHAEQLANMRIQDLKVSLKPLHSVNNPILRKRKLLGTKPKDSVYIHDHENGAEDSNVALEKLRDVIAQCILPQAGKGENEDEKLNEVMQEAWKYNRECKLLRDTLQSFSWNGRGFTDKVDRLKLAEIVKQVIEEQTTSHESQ

[5] = target: Calcium/calmodulin-dependent protein kinase type II subunit delta (Homo sapiens) (UniProt Q13557); assay: Selectivity interaction (KinomeScan (DiscoverX)) EUB0001049a CAMK2D; conditions: at 1 µM
Calcium/calmodulin-dependent protein kinase type II subunit delta (Homo sapiens), sequence (Q13557 whole entry): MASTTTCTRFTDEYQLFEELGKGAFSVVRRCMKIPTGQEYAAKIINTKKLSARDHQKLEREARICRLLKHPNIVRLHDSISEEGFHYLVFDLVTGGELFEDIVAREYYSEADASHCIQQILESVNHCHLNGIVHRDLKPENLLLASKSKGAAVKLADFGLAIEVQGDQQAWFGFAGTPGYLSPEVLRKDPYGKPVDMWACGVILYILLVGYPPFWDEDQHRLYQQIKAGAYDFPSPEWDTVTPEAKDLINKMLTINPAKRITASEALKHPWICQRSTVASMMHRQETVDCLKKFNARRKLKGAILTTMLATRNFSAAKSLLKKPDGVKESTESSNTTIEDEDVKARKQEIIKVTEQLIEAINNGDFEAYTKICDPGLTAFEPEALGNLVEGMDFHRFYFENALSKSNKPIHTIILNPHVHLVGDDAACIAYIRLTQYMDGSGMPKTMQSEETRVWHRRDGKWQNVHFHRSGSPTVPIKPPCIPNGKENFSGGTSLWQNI

[6] = target: T4, Myosin light chain kinase family member 4 (Homo sapiens) (UniProt Q86YV6); assay: Selectivity interaction (KinomeScan (DiscoverX)) EUB0000695a MYLK4; conditions: at 100 nM
T4 sequence (whole entry): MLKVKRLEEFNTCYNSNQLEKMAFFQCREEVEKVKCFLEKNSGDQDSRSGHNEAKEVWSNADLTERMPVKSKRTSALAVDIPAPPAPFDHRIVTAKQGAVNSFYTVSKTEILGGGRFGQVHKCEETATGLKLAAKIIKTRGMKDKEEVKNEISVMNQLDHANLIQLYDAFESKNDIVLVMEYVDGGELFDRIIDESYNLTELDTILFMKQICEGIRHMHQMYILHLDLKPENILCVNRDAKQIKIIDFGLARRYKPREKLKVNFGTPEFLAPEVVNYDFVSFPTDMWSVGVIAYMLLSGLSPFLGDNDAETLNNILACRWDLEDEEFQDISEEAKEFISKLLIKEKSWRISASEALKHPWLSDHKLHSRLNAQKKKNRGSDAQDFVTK

[7] = target: Mitogen-activated protein kinase 11 (Homo sapiens) (UniProt Q15759); assay: Selectivity interaction (KinomeScan (DiscoverX)) EUB0001619a MAPK11; conditions: at 1 µM
Mitogen-activated protein kinase 11 (Homo sapiens), sequence (Q15759 whole entry): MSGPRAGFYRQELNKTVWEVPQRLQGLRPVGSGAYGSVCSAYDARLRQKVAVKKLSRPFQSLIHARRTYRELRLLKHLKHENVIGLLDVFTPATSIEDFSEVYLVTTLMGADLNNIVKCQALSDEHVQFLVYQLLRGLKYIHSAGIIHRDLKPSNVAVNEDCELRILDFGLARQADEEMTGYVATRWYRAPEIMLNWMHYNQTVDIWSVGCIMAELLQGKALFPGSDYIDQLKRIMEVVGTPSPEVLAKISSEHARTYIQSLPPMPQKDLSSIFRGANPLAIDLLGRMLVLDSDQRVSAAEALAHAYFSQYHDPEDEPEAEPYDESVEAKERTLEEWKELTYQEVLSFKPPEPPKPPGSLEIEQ

[8] = target: Tyrosine-protein kinase ABL1 (Homo sapiens, UniProt P00519); assay: Selectivity interaction (ActivX KiNativ screen (ex vivo kinase selectivity in human PBMCs)) EUB0001619a ABL1; type: cell-based; conditions: PBMC, at 1 µM
Tyrosine-protein kinase ABL1, sequence (P00519 whole entry): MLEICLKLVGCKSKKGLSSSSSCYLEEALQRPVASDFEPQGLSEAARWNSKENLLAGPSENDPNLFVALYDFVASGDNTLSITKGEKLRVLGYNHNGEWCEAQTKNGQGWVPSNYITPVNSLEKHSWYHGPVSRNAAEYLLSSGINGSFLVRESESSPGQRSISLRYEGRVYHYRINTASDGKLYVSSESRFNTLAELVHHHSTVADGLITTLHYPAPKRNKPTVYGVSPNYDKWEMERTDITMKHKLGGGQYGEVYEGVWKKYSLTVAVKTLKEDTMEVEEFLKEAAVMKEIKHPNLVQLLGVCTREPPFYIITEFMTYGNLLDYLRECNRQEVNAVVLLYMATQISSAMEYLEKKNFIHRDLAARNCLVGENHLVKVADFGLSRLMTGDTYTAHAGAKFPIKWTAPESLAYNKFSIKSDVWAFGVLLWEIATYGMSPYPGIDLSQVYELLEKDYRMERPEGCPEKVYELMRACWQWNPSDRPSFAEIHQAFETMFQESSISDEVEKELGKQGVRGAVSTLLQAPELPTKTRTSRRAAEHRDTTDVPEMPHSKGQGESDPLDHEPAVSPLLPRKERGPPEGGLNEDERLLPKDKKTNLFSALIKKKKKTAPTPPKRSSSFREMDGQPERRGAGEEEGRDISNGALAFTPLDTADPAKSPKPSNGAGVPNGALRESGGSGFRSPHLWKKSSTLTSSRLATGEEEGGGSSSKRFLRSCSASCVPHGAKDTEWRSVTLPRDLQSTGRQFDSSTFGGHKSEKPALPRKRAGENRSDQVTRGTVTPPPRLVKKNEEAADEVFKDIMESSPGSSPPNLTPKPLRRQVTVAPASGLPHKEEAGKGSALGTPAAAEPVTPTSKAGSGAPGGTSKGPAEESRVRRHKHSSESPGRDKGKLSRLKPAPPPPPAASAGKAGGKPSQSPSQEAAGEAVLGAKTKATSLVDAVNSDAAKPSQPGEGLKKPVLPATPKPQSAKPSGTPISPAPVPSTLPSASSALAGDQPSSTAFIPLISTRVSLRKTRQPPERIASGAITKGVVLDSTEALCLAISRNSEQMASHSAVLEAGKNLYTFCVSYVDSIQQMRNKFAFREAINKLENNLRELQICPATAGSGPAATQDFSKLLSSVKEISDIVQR

## CCN(CC)CCCCNc1ncc2cc(-c3cc(OC)cc(OC)c3)c(NC(=O)NC(C)(C)C)nc2n1
[1]
  % of control: 100%

## Nc1cnc(N2CCc3cc(S(=O)(=O)Nc4c(F)cc(Cl)cc4F)cc(N4CCCC4=O)c32)nc1 [TP-020n]
Histamine H3 receptor
  % of inhibition: -1.21%

## CN(C)CCCOc1ccc(-c2cc(NCCCn3cccn3)nc(S(C)(=O)=O)n2)cc1
[2]
  dTM: < 2 K

## CC[C@@H]1[C@H](F)C(=O)N[C@@H]1COc1nccc2cc(C(N)=O)c(OC)cc12 [ZIMLOVISERTIB]
[3]; at 0.01 µM
  % of inhibition: 6%
[3]; at 0.04 µM
  % of inhibition: 0%
[3]; at 0.2 µM
  % of inhibition: -2.1%
[3]; at 1 µM
  % of inhibition: -3.6%
[3]; at 5 µM
  % of inhibition: -0.9%

## CNC(=O)Nc1ccc(-c2nc(N3CC4CCC(C3)O4)c3cnn(C4CCC5(CC4)OCCO5)c3n2)cc1
[4]
  % of control: 100%

## COc1cc(Nc2nc(C)cc(-c3cnn4nc(OC)ccc34)n2)cc(C(F)(F)F)c1
[5]
  % of control: 100%

## Cc1cc(F)c(C(=O)Nc2cccc(-c3nncn3C(C)C)n2)cc1-n1cnc(C2CC2)c1
[6]
  % of control: 100%

## N#Cc1cccc(-c2c[nH]c3ncnc(N4CCOCC4)c23)c1
[7]
  % of control: 100%
[8]
  % of inhibition: -53%
